We go through 16 molecules from patent publication US20230278958A1 (Merck Patent GmbH, priority 2020, published 2023).

One series relates to YAP-TEAD interaction. Briefly: SK-HEP-1 reporter assay (8x TEAD responsive elements driving NanoLuc luciferase). The class given is cell-based. Particulars: Homo sapiens, SK-HEP1; SK-HEP-1 TEAD-NanoLuc reporter cells, 24 hour incubation, luciferase readout. In short, it runs like this: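 SK-HEP-1 cells carrying stable 8× TEAD-element NanoLuc reporter, treated in duplicate with 10-point doses (top 30 μM final, 0.3% DMSO) for 24 h at 37 °C. Luciferase activity read by NanoGlo luminescence; IC50 values derived.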
For orientation: Reporter assays use an easily measured gene product as a stand-in for the process of interest.

The next series has as its system NCI-H226 cells. The experiment in a line: Viability assay in NCI-H226 (Yap-dependent) cells, CyQUANT. It is filed as cell-based. As to conditions: Homo sapiens, 96 hour incubation. How it is done: (§1) The ability of YAP-TEAD inhibitors to inhibit tumor cell growth was evaluated using two different cell lines: NCI-H226, which is a YAP dependent cell line, and SW620 cells, where YAP and TAZ were knocked out using CRISPR to generate a YAP independent cell line.
(§2) For the assay, cells were treated in duplicates with the test compounds in a 10-point dose, 1:3 dilution steps, with the top concentration starting at 30 μM (final concentration in assay). After a 96 hour incubation at 37° C., 95% rH, and 5% CO2, a cell-permeant DNA-binding dye that stains only healthy cells (CyQUANT®, Promega) was added to the cells, allowing the quantification of cell viability.
(§3) Cell Media: The NCI-H226 cells were cultured in the following media: RPMI 1640, +10% FBS, +1× GlutaMAX, +10 mM HEPES, +0.5% Pen/Strep. The SW620-KO cells were cultured in the following media: DMEM/F-12, +10% FBS, +1× GlutaMAX, +10 mM HEPES, +0.5% Pen/Strep.
(§4) Reagents: The reagents used are listed below:
(§5) Cell culture: The cells were examined using an inverted microscope to check for health, cell density, etc. To dissociate adherent cells, the monolayer of cells was washed once with pre-warmed PBS. After removing the PBS, 3 ml pre-warmed Accutase was added to a F75 flask, dispersed evenly and the flask was allowed to sit in incubator for ˜4-5 minutes.
(§6) When a single cell suspension was obtained, 7 ml of prewarmed growth media was added and resuspended with the cells. The cell suspension was transferred to a sterile 15 ml conical centrifuge tube, and spun for 5 min at 300×g, RT. The supernatant was discarded and the pellet was resuspended in 10 ml of pre-warmed growth media.
(§7) The total cell count was determined, and 20 μl of the desired cell number was added to each well of a 384 well plate using a Multidrop Combi. The plates were then incubated for 24 hours at 37° C., 95% rH, and 5% CO2.
(§8) Compound treatment: 24 hours after seeding, the cells were treated with compounds.
(§9) A 1:333 dilution of compounds, diluted in DMSO, was made to get a final concentration of 0.3% DMSO per well. To transfer the compounds to the assay plate, 120 nl was shot from Labcyte low dead volume plates to the cell plates containing 20 μl media/well with the ECHO 555 liquid handling system.
(§10) After treatment, the cells were fed with 20 μl fresh pre-warmed assay media using a Multidrop combi.
(§11) The assay plates were then incubated for 96 h at 37° C., 95% rH, and 5% CO2.
(§12) 96h after treatment 30 μl of CyQuant® reagent was added to the assay plates using a Multidrop combi in the dark. The plates were then incubated for 1 hour at 37° C., 95% rH and 5% CO2. Thereafter, the assay plates were removed from the incubator and allowed to equilibrate to RT for 30 min in the dark without lid. Finally, they were measured using an EnVision microplate reader with a FITC bottom read program.
(§13) Experimental data in the Viability assay of the compounds shown in Table 1 are shown in Table 3 below and classified in the following groups: […]

A further series concerns SW620 Yap KO cells. The experiment in a line: Viability assay in SW620 Yap KO (Yap independent) cells, CyQUANT. It is filed as cell-based. As to conditions: Homo sapiens, SW-620, SW620 YAP/TAZ knock-out (YAP independent) cells, 96 hour incubation. How it is done: as §1, §2, §3, §4, §5, §6, §7, §8, §9, §10, §11, §12, §13

A word on the IC50: it is the point on the concentration scale where inhibition reaches its midpoint. High values mean lower potency, low ones higher potency. For `O=C(O)c1ccc2c(c1)c1cc(Cc3ccccc3)ccc1n2-c1ccc(C(F)(F)F)cc1` [Compound 1, 6-benzyl-9-[4-(trifluoromethyl)phenyl]-9H-carbazole-3-carboxylic acid], the results for the IC50 in the series with YAP-TEAD interaction, with NCI-H226 cells and in the series with SW620 Yap KO cells were 0.1 to 1 µM, 0.1 to 1 µM and more than 10 µM, respectively.
Regarding `Cc1cccc2c1c1cc(C(=O)O)ccc1n2-c1ccc(C(F)(F)F)cc1` [Compound 6, 5-methyl-9-[4-(trifluoromethyl)phenyl]-9H-carbazole-3-carboxylic acid], the values for the IC50 in the series with YAP-TEAD interaction, with NCI-H226 cells and with SW620 Yap KO cells were 0.001 to 0.01 µM, 0.001 to 0.1 µM and more than 10 µM, respectively.
`O=C(O)c1ccc2c(c1)c1ccccc1n2-c1ccc(C(F)(F)F)cc1` [Compound 8, 9-[4-(trifluoromethyl)phenyl]-9H-carbazole-3-carboxylic acid]: the half-inhibitory concentration (IC50) in the series with YAP-TEAD interaction was 0.01 to 0.1 µM; with NCI-H226 cells it was 0.1 to 1 µM; in the series with SW620 Yap KO cells it was more than 10 µM.
The matching figures for `Cc1ccc2c(c1)c1cc(C(=O)O)ccc1n2-c1ccc(C(F)(F)F)cc1` [Compound 10, 6-methyl-9-[4-(trifluoromethyl)phenyl]-9H-carbazole-3-carboxylic acid]: 0.001 to 0.01 µM, 0.001 to 0.1 µM and more than 10 µM.
One may read the melting point as the temperature, or range, at which the solid turns liquid. Regarding `COc1ccc2c(n1)c1cc(C(=O)O)ccc1n2-c1ccc(C(F)(F)F)cc1` [Compound 19, 2-methoxy-5-[4-(trifluoromethyl)phenyl]-5H-pyrido[3,2-b]indole-8-carboxylic acid], the melting point was in the range of 245 to 247 °C. This molecule also came in with an IC50 in the series on YAP-TEAD interaction of 0.001 to 0.01 µM. In addition, the IC50 in the series on NCI-H226 cells was 0.1 to 1 µM.
The matching figures for `Cc1ccc2c3cc(C(=O)O)ccc3n(-c3ccc(C(F)(F)F)cc3)c2c1` [Compound 20, 7-methyl-9-[4-(trifluoromethyl)phenyl]-9H-carbazole-3-carboxylic acid]: 250 to 252 °C, 0.01 to 0.1 µM and 1 to 10 µM.
Take `CNC(=O)c1ccc2c(c1)c1cc(C)ccc1n2-c1ccc(C(F)(F)F)cc1` [Compound 21, N,6-dimethyl-9-[4-(trifluoromethyl)phenyl]-9H-carbazole-3-carboxamide]: the melting point was in the range of 184 to 186 °C. In the series on YAP-TEAD interaction, this molecule registered an IC50 of 0.001 to 0.01 µM. The molecule further registered an IC50 in the series with NCI-H226 cells of 0.001 to 0.1 µM. Moreover, the IC50 in the series with SW620 Yap KO cells is 1 to 10 µM.
For `CNC(=O)c1ccc2c(c1)c1nc(C)ccc1n2-c1ccc(C(F)(F)F)cc1` [Compound 22, N,2-dimethyl-5-[4-(trifluoromethyl)phenyl]-5H-pyrido[3,2-b]indole-8-carboxamide], in that order: 134 to 136 °C, 0.01 to 0.1 µM, 0.001 to 0.1 µM and more than 10 µM.
Take `CNC(=O)c1ccc2c(c1)c1cc(F)ccc1n2-c1ccc(C(F)(F)F)cc1` [Compound 23, 6-fluoro-N-methyl-9-[4-(trifluoromethyl)phenyl]-9H-carbazole-3-carboxamide]: the melting point lay within 270 to 272 °C. For the same molecule, the IC50 with YAP-TEAD interaction is 0.01 to 0.1 µM. The same molecule yielded an IC50 with NCI-H226 cells of 0.001 to 0.1 µM.
The matching figures for `CNC(=O)c1ccc2c(c1)c1ccc(C)cc1n2-c1ccc(C(F)(F)F)cc1` [Compound 26, N,7-dimethyl-9-[4-(trifluoromethyl)phenyl]-9H-carbazole-3-carboxamide]: 230 to 232 °C, 0.01 to 0.1 µM and 0.1 to 1 µM.
On to `CNC(=O)c1ccc2c(c1)c1nc(OC)ccc1n2-c1ccc(C(F)(F)F)cc1` [Compound 27, 2-methoxy-N-methyl-5-[4-(trifluoromethyl)phenyl]-5H-pyrido[3,2-b]indole-8-carboxamide], for which the melting point is 180 to 182 °C. The same molecule returned an IC50 with YAP-TEAD interaction of 0.01 to 0.1 µM. In addition, the IC50 in the series with NCI-H226 cells is 0.001 to 0.1 µM. Moreover, the IC50 with SW620 Yap KO cells was more than 10 µM.
For `CNC(=O)c1ccc2c(c1)c1cc(C(C)C)ccc1n2-c1ccc(C(F)(F)F)cc1` [Compound 28, N-methyl-6-(propan-2-yl)-9-[4-(trifluoromethyl)phenyl]-9H-carbazole-3-carboxamide], in that order: 141 to 142 °C, 0.01 to 0.1 µM, 0.1 to 1 µM and 1 to 10 µM.
`CNC(=O)c1ccc2c(c1)c1nc(C(F)(F)F)ccc1n2-c1ccc(C(F)(F)F)cc1` [Compound 29, N-methyl-2-(trifluoromethyl)-5-[4-(trifluoromethyl)phenyl]-5H-pyrido[3,2-b]indole-8-carboxamide]: the melting point lay in the range of 225 to 227 °C. Also, the IC50 in the series on YAP-TEAD interaction lay within 0.1 to 1 µM. Moreover, the IC50 in the series on NCI-H226 cells is more than 10 µM.
The matching figures for `CNC(=O)c1ccc2c(c1)c1cc(C(F)(F)F)ccc1n2-c1ccc(C(F)(F)F)cc1` [Compound 30, N-methyl-6-(trifluoromethyl)-9-[4-(trifluoromethyl)phenyl]-9H-carbazole-3-carboxamide]: 242 to 244 °C, 0.01 to 0.1 µM and 1 to 10 µM.
The matching figures for `CNC(=O)c1ccc2c(c1)c1cc(C#N)ccc1n2-c1ccc(C(F)(F)F)cc1` [Compound 33, 6-cyano-N-methyl-9-[4-(trifluoromethyl)phenyl]-9H-carbazole-3-carboxamide]: 270 to 272 °C, 0.01 to 0.1 µM and 0.001 to 0.1 µM.
For `O=C(O)c1cc2c3cccnc3n(-c3ccc(C(F)(F)F)cc3)c2cn1` [Compound 35, 8-[4-(trifluoromethyl)phenyl]-5,8,10-triazatricyclo[7.4.0.0^2,^7]trideca-1(9),2,4,6,10,12-hexaene-4-carboxylic acid], in that order: 185 to 188 °C, 0.01 to 0.1 µM and 0.1 to 1 µM.
